According to PubChem BioAssay AID248 (DTP/NCI, 2004):
“And” between values parts separate entries of the source, which are not always exact repeats. Equal values may be shown once. Toxic doses and inconclusive results are not listed. No stated cut-off is given here; in the data, active means T/C of 150% or more; inactive means T/C below 125%.

System: L1210 leukemia ip in BDF1 mice, survival T/C
Assay: NCI In Vivo Anticancer Drug Screen. Data for tumor model L1210 Leukemia (intraperitoneal) in B6D2F1 (BDF1) mice
Conditions: endpoint: mean survival time, higher = longer survival
Summary of the method: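 Value reflects the ratio of survival in compound-treated mice to survival in vehicle-treated controls, with both groups carrying the same transplanted tumor.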

[1] = dose: 100.0 mg/kg/injection, schedule: Q01DX001 (ip), vehicle: saline
[2] = dose: 200.0 mg/kg/injection, schedule: Q01DX001 (ip), vehicle: saline
[3] = dose: 400.0 mg/kg/injection, schedule: Q01DX001 (ip), vehicle: saline
[4] = dose: 100.0 mg/kg/injection, schedule: Q01DX009 (ip), vehicle: saline with Tween-80
[5] = dose: 200.0 mg/kg/injection, schedule: Q01DX009 (ip), vehicle: saline with Tween-80
[6] = dose: 100.0 mg/kg/injection, schedule: Q04DX003 (ip), vehicle: Klucel (hydroxypropylcellulose) (HPC)
[7] = dose: 200.0 mg/kg/injection, schedule: Q04DX003 (ip), vehicle: Klucel (hydroxypropylcellulose) (HPC)
[8] = dose: 400.0 mg/kg/injection, schedule: Q04DX003 (ip), vehicle: Klucel (hydroxypropylcellulose) (HPC)
[9] = dose: 100.0 mg/kg/injection, schedule: Q01DX009 (ip), vehicle: saline

Measured: T/C

CCCCCCCCCCCCC(CCCCCCCCCCCC)C1CCCCC1
inactive: [1] 102 % of control | [2] 104 % of control | [3] 95 % of control

COC(=O)C12C3OC(C4OC43)C1(C(=O)OC)C1OC2C2OC21 (stereo not drawn)
inactive: dose: 87.5 mg/kg/injection, schedule: Q01DX009 (ip), vehicle: Klucel (hydroxypropylcellulose) (HPC) 100 % of control | dose: 175.0 mg/kg/injection, schedule: Q01DX009 (ip), vehicle: Klucel (hydroxypropylcellulose) (HPC) 101 % of control | dose: 350.0 mg/kg/injection, schedule: Q01DX009 (ip), vehicle: Klucel (hydroxypropylcellulose) (HPC) 101 % of control

CCC/C(=N\NC(=O)c1ccccc1OC)c1ccccc1
inactive: dose: 50.0 mg/kg/injection, schedule: Q01DX009 (ip), vehicle: saline with Tween-80 105 % of control | [4] 97 % of control | [5] 105 % of control

ClC(c1ccccc1)c1ccc(Br)cc1 (stereo not drawn)
inactive: [6] 108 % of control | [7] 101 % of control | [8] 90 % of control

C/C=C/C=N/n1c(CCC)nc2ccccc2c1=O
inactive: dose: 100.0 mg/kg/injection, schedule: Q04DX002 (ip), vehicle: Klucel (hydroxypropylcellulose) (HPC) 90 % of control | dose: 200.0 mg/kg/injection, schedule: Q04DX002 (ip), vehicle: Klucel (hydroxypropylcellulose) (HPC) 104 % of control

C=COCCCCCC(C)C
inactive: dose: 50.0 mg/kg/injection, schedule: Q01DX009 (ip), vehicle: Klucel (hydroxypropylcellulose) (HPC) 96 % of control | dose: 100.0 mg/kg/injection, schedule: Q01DX009 (ip), vehicle: Klucel (hydroxypropylcellulose) (HPC) 106 % of control | [6] 107 % of control | dose: 200.0 mg/kg/injection, schedule: Q01DX009 (ip), vehicle: Klucel (hydroxypropylcellulose) (HPC) 91 % of control | [7] 105 % of control | [8] 104 % of control

COC(=O)c1ccc(OC(=O)Nc2cc(Cl)ccc2C)cc1
inactive: [4] 106 % of control | [5] 89 % of control

COc1c2c(cc3c1OCO3)[C@@]13CCN(C2)[C@@H]1CC=C[C@H]3O
inactive: dose: 5.0 mg/kg/injection, schedule: Q01DX001 (ip), vehicle: carboxymethylcellulose (CMC) 105 % of control | dose: 10.0 mg/kg/injection, schedule: Q01DX001 (ip), vehicle: carboxymethylcellulose (CMC) 105 % of control

CN(C)C(=S)SCCOc1ccc(Cl)cc1Cl
inactive: dose: 25.0 mg/kg/injection, schedule: Q04DX003 (ip), vehicle: Klucel (hydroxypropylcellulose) (HPC) 95 % of control | dose: 50.0 mg/kg/injection, schedule: Q04DX003 (ip), vehicle: Klucel (hydroxypropylcellulose) (HPC) 98 % of control | dose: 100.0 mg/kg/injection, schedule: Q01DX001 (ip), vehicle: Klucel (hydroxypropylcellulose) (HPC) 96 % of control | [6] 101 % of control | dose: 200.0 mg/kg/injection, schedule: Q01DX001 (ip), vehicle: Klucel (hydroxypropylcellulose) (HPC) 100 % of control | dose: 400.0 mg/kg/injection, schedule: Q01DX001 (ip), vehicle: Klucel (hydroxypropylcellulose) (HPC) 104 % of control

Cc1nc2ccccc2nc1CI
inactive: dose: 3.12 mg/kg/injection, schedule: Q01DX009 (ip), vehicle: acetone 100 % of control | dose: 6.25 mg/kg/injection, schedule: Q01DX009 (ip), vehicle: acetone 104 % of control | dose: 12.5 mg/kg/injection, schedule: Q01DX009 (ip), vehicle: acetone 100 % of control | dose: 12.5 mg/kg/injection, schedule: Q04DX003 (ip), vehicle: acetone 113 % of control | dose: 18.0 mg/kg/injection, schedule: Q01DX009 (ip), vehicle: saline with Tween-80 92 % of control

CS(=O)(=O)n1c(C(Cl)c2ccccc2)nc2ccccc21 (stereo not drawn)
inactive: [1] 102 % of control | [2] 104 % of control | [3] 120 % of control

CC1(C)OCC2SC(n3cnc4c(N)ncnc43)C(O)C2O1 (stereo not drawn)
inactive: dose: 25.0 mg/kg/injection, schedule: Q01DX009 (ip), vehicle: saline 94 % of control | dose: 33.0 mg/kg/injection, schedule: Q01DX001 (ip), vehicle: carboxymethylcellulose (CMC) 97 % of control | dose: 50.0 mg/kg/injection, schedule: Q01DX009 (ip), vehicle: saline 98 % of control | dose: 66.5 mg/kg/injection, schedule: Q01DX001 (ip), vehicle: carboxymethylcellulose (CMC) 92 % of control | dose: 100.0 mg/kg/injection, schedule: Q01DX005 (ip), vehicle: saline 94 % of control and 97 % of control | [9] 98 % of control | dose: 133.0 mg/kg/injection, schedule: Q01DX001 (ip), vehicle: carboxymethylcellulose (CMC) 92 % of control | dose: 200.0 mg/kg/injection, schedule: Q01DX005 (ip), vehicle: saline 95 % of control

COC(=O)C1C2CCc3cc(OC)ccc3C2=CCC1C(OC)OC (stereo not drawn)
inactive: [6] 89 % of control | [7] 89 % of control | [8] 89 % of control

C/C(=N/N(C)C)c1ccc(C)cc1
inactive: [1] 93 % of control | [9] 91 % of control | [2] 97 % of control | [3] 105 % of control
